Here are results for eight compounds from ChEMBL document CHEMBL1201862, “PubChem BioAssay data set” (2004).

In general, GI50 refers to the concentration giving 50% growth inhibition.

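Dose response: 5 concentrations. Exposure: 48 h. Format: 96-well plates. Endpoint: linear interpolation; highest concentration if not reached. GI50 = concentration required for 50% inhibition of growth.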 Calls of active or inactive are those of the source. No stated cut-off is given here; in the data, active = GI50 up to about 1.1 µM and inactive = higher. Bounds are passed on as bounds.

Some test systems named below: 786-0; HCC 2998; HT-29; Hs-578T; K562; M14; MCF7; OVCAR-3; OVCAR-5; PC-3; RXF 393; SK-MEL-5; SK-OV-3; SR; T47D; TK-10; U-251; UO-31; HL-60; HOP-92.
Holding throughout (test): DTP human tumour cell line panel, 48 h

For the compound `O=C1c2ccccc2C(=O)N1C1(C(=O)NC2(C(=O)O)CCCC2)CCCC1`, the GI50 with 786-0, with HCC 2998, in the experiment with HT-29, with Hs-578T, in the experiment with K562 and with M14 was > 100 µM (inactive) throughout. Further, the GI50 in the experiment on MCF7, with OVCAR-3, with OVCAR-5, with PC-3, in the experiment with RXF 393 and with SK-MEL-5 was > 100 µM (inactive) in each case. Besides, the GI50 in the experiment on SK-OV-3, with SR, in the experiment with T47D, in the experiment with TK-10, in the experiment with U-251 and in the experiment on UO-31 was > 100 µM (inactive) in each case.

For `Cc1cc(C)c(S(=O)(=O)N(CCCN)OCCCON(CCCN)S(=O)(=O)c2c(C)cc(C)cc2C)c(C)c1`, the GI50 in the experiment with 786-0 is 2.33 µM (inactive); in the experiment on HL-60, 1.91 µM (inactive); in the experiment on HOP-92 it was 1.98 µM (inactive); in the experiment on HT-29 it was 1.67 µM (inactive); with Hs-578T it was 1.49 µM (inactive); with K562 it was 2.69 µM (inactive). In addition, the GI50 in the experiment on M14 is 1.75 µM (inactive); in the experiment with MCF7, 1.82 µM (inactive); in the experiment on OVCAR-3 it was 2.03 µM (inactive); in the experiment on OVCAR-5 it was 2.2 µM (inactive); in the experiment with PC-3, 1.82 µM (inactive); with RXF 393, 4.6 µM (inactive). Also, the GI50 with SK-MEL-5 is 4.55 µM (inactive); with SK-OV-3, 1.82 µM (inactive); in the experiment with SR, 2.07 µM (inactive); in the experiment with T47D, 1.61 µM (inactive); with TK-10 it was 4.5 µM (inactive); in the experiment on U-251 it was 1.64 µM (inactive). The GI50 in the experiment on UO-31 is 16.7 µM (inactive).

For the compound `O=Cc1c(-c2ccccc2)nc2ccccc2c1O`, the GI50 in the experiment on 786-0 is 49.2 µM (inactive); with HCC 2998, 58.5 µM (inactive); in the experiment with HOP-92, > 100 µM (inactive); in the experiment on HT-29 it was 39.9 µM (inactive); with Hs-578T, 30.1 µM (inactive); with M14, 68.2 µM (inactive). Further, the GI50 in the experiment on MCF7 was 39.3 µM (inactive); with OVCAR-3, 49.8 µM (inactive); in the experiment on OVCAR-5 it was > 100 µM (inactive); in the experiment on PC-3, 36.5 µM (inactive); in the experiment with SK-MEL-5, 17.9 µM (inactive); with SK-OV-3, > 100 µM (inactive). The GI50 was < 0.01 µM (active) with SR; 64.6 µM (inactive) with T47D; > 100 µM (inactive) in the experiment on TK-10; 74.3 µM (inactive) in the experiment with U-251; 85.7 µM (inactive) in the experiment with UO-31.

As to `CC(C)(C)OC(=O)n1cc(C2CN(O)C(=O)C23CCC(=O)N3Cc2ccccc2)c2ccccc21` (configuration not stated), the GI50 with 786-0 is 45.9 µM (inactive); in the experiment with HL-60 it was 54.2 µM (inactive); with HOP-92, 4.46 µM (inactive); with HT-29, 39.9 µM (inactive); in the experiment with Hs-578T it was 42.3 µM (inactive); in the experiment with K562 it was 78.7 µM (inactive). For the same compound, the GI50 is > 100 µM (inactive) in the experiment with M14; 33.5 µM (inactive) in the experiment on MCF7; 66.5 µM (inactive) in the experiment with OVCAR-3; 46.9 µM (inactive) in the experiment with OVCAR-5; 28 µM (inactive) in the experiment with PC-3; 68.4 µM (inactive) in the experiment on RXF 393. Besides, the GI50 in the experiment with SK-MEL-5 is 29.4 µM (inactive); with SK-OV-3, 23.9 µM (inactive); in the experiment on SR it was 44.6 µM (inactive); in the experiment with T47D, 50.6 µM (inactive); with TK-10, 32.8 µM (inactive); in the experiment with U-251 it was 36.9 µM (inactive). Further, the GI50 in the experiment with UO-31 was 40.7 µM (inactive).

Turning to `CC(=O)Oc1c(OC(C)C)c(C)c(O[Si](C(C)C)(C(C)C)C(C)C)c2[nH]c3ccccc3c12`, the GI50 is > 100 µM (inactive) in the experiment on 786-0; 2.62 µM (inactive) with HL-60; > 100 µM (inactive) in the experiment with HOP-92; 38.5 µM (inactive) in the experiment with HT-29; > 100 µM (inactive) in the experiment on Hs-578T; > 100 µM (inactive) with K562. For the same compound, the GI50 was > 94.6 µM (inactive) in the experiment on M14; 56.6 µM (inactive) in the experiment with MCF7; > 100 µM (inactive) in the experiment on OVCAR-3; > 100 µM (inactive) with OVCAR-5; 37.7 µM (inactive) in the experiment on PC-3; 20.2 µM (inactive) with RXF 393. For the same compound, the GI50 in the experiment on SK-MEL-5 was > 100 µM (inactive); in the experiment on SK-OV-3 it was > 100 µM (inactive); in the experiment on SR, 25.5 µM (inactive); with T47D, 44.4 µM (inactive); in the experiment with TK-10, > 100 µM (inactive); in the experiment with U-251 it was 99.5 µM (inactive). For the same compound, the GI50 with UO-31 was > 100 µM (inactive).

For the compound `c1ccc(C2=Nc3nc4ccccc4n3C(c3ccccc3)C2)cc1` (configuration not stated), the GI50 in the experiment with 786-0 was > 100 µM (inactive); in the experiment with HL-60, > 100 µM (inactive); in the experiment on HOP-92, 24.6 µM (inactive); with HT-29, > 100 µM (inactive); in the experiment on Hs-578T, 45.5 µM (inactive); in the experiment on K562, > 100 µM (inactive). The GI50 in the experiment on M14 was > 100 µM (inactive); in the experiment with MCF7 it was > 100 µM (inactive); in the experiment on OVCAR-3, > 100 µM (inactive); with OVCAR-5 it was > 100 µM (inactive); in the experiment on PC-3, > 100 µM (inactive); in the experiment on RXF 393, 41 µM (inactive). Besides, the GI50 in the experiment with SK-MEL-5, in the experiment with SK-OV-3, in the experiment on SR, in the experiment on T47D, in the experiment on TK-10 and with U-251 was > 100 µM (inactive) each time. Also, in the experiment on UO-31, the GI50 is > 100 µM (inactive).

On to `COC(=O)c1ccc2[nH]c3c(c2c1)CC(=O)Nc1ccccc1-3`, for which the GI50 in the experiment with 786-0 is > 100 µM (inactive); with HCC 2998, > 100 µM (inactive); with HT-29, > 100 µM (inactive); in the experiment with Hs-578T, > 100 µM (inactive); in the experiment on K562, 27.4 µM (inactive); in the experiment on M14, 35.8 µM (inactive). Further, the GI50 in the experiment with MCF7 is > 100 µM (inactive); in the experiment on OVCAR-3 it was > 100 µM (inactive); with OVCAR-5 it was 60.3 µM (inactive); with PC-3 it was > 100 µM (inactive); in the experiment with SK-MEL-5, > 100 µM (inactive); in the experiment on SK-OV-3, 41.7 µM (inactive). In addition, the GI50 with SR was 7.28 µM (inactive); in the experiment on T47D, > 100 µM (inactive); in the experiment with TK-10 it was 83.9 µM (inactive); in the experiment on U-251, 6.68 µM (inactive); in the experiment on UO-31 it was 0.0278 µM (active).

Regarding `c1ccc(-c2cccc(-c3ccccn3)n2)nc1` [TERPYRIDINE], the GI50 in the experiment with 786-0 is 0.368 µM (active); in the experiment with HCC 2998, 0.298 µM (active); in the experiment on HL-60, 0.173 µM (active); in the experiment on HT-29, 0.5 µM (active); in the experiment with Hs-578T it was 7.06 µM (inactive); with K562, 0.345 µM (active). Besides, the GI50 in the experiment with M14 is 0.164 µM (active); with MCF7 it was 0.394 µM (active); with OVCAR-3, 0.316 µM (active); in the experiment on OVCAR-5, 0.755 µM (active); in the experiment on PC-3, 0.409 µM (active); in the experiment with RXF 393 it was 0.424 µM (active). The GI50 in the experiment on SK-MEL-5 was 0.246 µM (active); in the experiment with SK-OV-3, 0.783 µM (active); with SR, 0.317 µM (active); in the experiment on T47D it was 1.1 µM (active); in the experiment with TK-10 it was 0.847 µM (active); in the experiment on U-251, 0.548 µM (active). Moreover, in the experiment on UO-31, the GI50 is 0.197 µM (active).
